Experimental data reported in patent US9708286B2, “Ingenol-3-acylates III and ingenol-3-carbamates” (LEO Laboratories Limited, priority 2010, dated 2017).
Like-named read-outs stand apart in the source and are kept apart here.

Columns and labels:
Format in all cases: cell-based
[1] = tested on: PMN's (polymorphonuclear leukocytes); test: Neutrophil oxidative burst; details: Leukocyte, 40 min, normalized to 5×10^−7 M PEP0005
How it was run: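 Human buffy-coat neutrophils (2.5×10^5/well) in HBSS with 0.1% BSA, 5 mM glucose treated with compound premixed with 10 μM hydroethidine for 40 min at RT; fluorescence read at 485/579 nm. Normalized to 5×10^−7 M PEP0005; Rel EC50 is midway between fitted top and bottom, Abs EC50 gives 50% of PEP0005 maximum.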

[2] = tested on: Primary human epidermal keratinocytes, HeKa; test: HeKa cytokine release (IL-8); details: Homo sapiens, read-out: HeKa cytokine release (IL-8) Rel EC50 range
How it was run: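 Seeded cells exposed to compound dilutions for 6 h at 37° C; IL-8 in supernatant quantified by MSD sandwich electrochemiluminescence immunoassay. Effects normalized to positive control (1.5×10^−7 M PEP0005), four-parameter sigmoidal fit; Rel EC50 is concentration midway between fitted top and bottom.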

HeLa cells = test: Necrosis assay; details: Homo sapiens, 0.5 h, read-out: HeLa necrosis EC50 range
How it was run: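 HeLa cells treated with compound at 10 μM to 400 μM (final) for 30 min at 37° C., viability then measured by PrestoBlue fluorescence (ex 535/em 630 nm). Normalized to 1% DMSO and 400 μM ingenol mebutate controls; AbsEC50 from four-parameter sigmoidal fit.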

[3] = read-out: Neutrophil oxidative burst Rel EC50 range, PMN from buffy coats, 40 min at RT, hydroethidine fluorescence

| Structure (SMILES) | EC50 [1, 3] | EC50 ([2]; HEKa, 6 h) | EC50 (HeLa cells; HeLa) | EC50 ([1]; PMN from buffy coats, 40 min at RT, hydroethidine fluorescence, read-out: Neutrophil oxidative burst Rel EC50 range) | EC50 ([2]; HeKa cells, 6 h at 37° C., IL-8 by MSD assay, normalized to 1.5×10^−7 M PEP0005) | EC50 (HeLa cells; HeLa cells, 30 min at 37° C., PrestoBlue, AbsEC50, normalized to 400 μM ingenol mebutate) |
| --- | --- | --- | --- | --- | --- | --- |
| CC1=C[C@]23C(=O)[C@@H](C=C(CO)[C@@H](O)[C@]2(O)[C@H]1OC(=O)N1CCNc2ccccc21)[C@H]1[C@@H](C[C@H]3C)C1(C)C [Compound 744, Ingenol 3-(3,4-dihydro-2H-quinoxaline-1-carboxylate)] | 20 to 100 nM | 20 to 100 nM | 150 to 350 µM |  |  |  |
| CC1=C[C@]23C(=O)[C@@H](C=C(CO)[C@@H](O)[C@]2(O)[C@H]1OC(=O)N1Cc2ccccc2C1)[C@H]1[C@@H](C[C@H]3C)C1(C)C [Compound 745, Ingenol 3-(isoindoline-2-carboxylate)] | < 20 nM | < 20 nM | 150 to 350 µM |  |  |  |
| CC1=C[C@]23C(=O)[C@@H](C=C(CO)[C@@H](O)[C@]2(O)[C@H]1OC(=O)N(C)CC1CCOCC1)[C@H]1[C@@H](C[C@H]3C)C1(C)C [Compound 746, Ingenol 3-(N-methyl-N-(tetrahydropyran-4-ylmethyl)-carbamate)] | 20 to 100 nM | > 100 nM | > 350 µM |  |  |  |
| CC1=C[C@]23C(=O)[C@@H](C=C(CO)[C@@H](O)[C@]2(O)[C@H]1OC(=O)N(C)C1CCOCC1)[C@H]1[C@@H](C[C@H]3C)C1(C)C [Compound 747, Ingenol 3-(N-methyl-N-(tetrahydropyran-4-yl)-carbamate)] | 20 to 100 nM | > 100 nM | > 350 µM |  |  |  |
| COc1cccc(N(C)C(=O)O[C@H]2C(C)=C[C@]34C(=O)[C@@H](C=C(CO)[C@@H](O)[C@]23O)[C@H]2[C@@H](C[C@H]4C)C2(C)C)c1 [Compound 748, Ingenol 3-(N-methyl-N-(3-methoxy-phenyl)-carbamate)] | < 20 nM | 20 to 100 nM | 150 to 350 µM |  |  |  |
| CC1=C[C@]23C(=O)[C@@H](C=C(CO)[C@@H](O)[C@]2(O)[C@H]1OC(=O)N(C)c1nc(C)cs1)[C@H]1[C@@H](C[C@H]3C)C1(C)C [Compound 752, Ingenol 3-(N-methyl-N-(4-methylthiazol-2-yl)-carbamate)] | < 20 nM | < 20 nM | 150 to 350 µM |  |  |  |
| CC1=C[C@]23C(=O)[C@@H](C=C(CO)[C@@H](O)[C@]2(O)[C@H]1OC(=O)N(C)c1ccc(C#N)cc1)[C@H]1[C@@H](C[C@H]3C)C1(C)C [Compound 753, Ingenol 3-(N-(4-cyano-phenyl)-N-methyl-carbamate)] | 20 to 100 nM | 20 to 100 nM | 150 to 350 µM |  |  |  |
| C/C=C(/C)C(=O)O[C@H]1C(C)=C[C@]23C(=O)[C@@H](C=C(CO)[C@@H](O)[C@]12O)[C@H]1[C@@H](C[C@H]3C)C1(C)C [Ingenol mebutate, Ingenol-3-angelate, reference compound] |  |  |  | < 20 nM | < 20 nM | 150 to 350 µM |
